Results on 24 compounds are retold here after ChEMBL document CHEMBL1155809, “Design, synthesis, and antihepatocellular carcinoma activity of nitric oxide releasing derivatives of oleanolic acid” (J Med Chem, 2008).

Active and inactive are the calls of the source. The calls are words filed in the database; no cut-off is given here.

Assay [1] concerns HepG2. Nature of the assay: Cytotoxicity against human HepG2 cells assessed as cell death after 24 hrs by lactate dehydrogenase release assay. It is filed as functional, cell-based.
Assay [2] has as its system Hep 3B2. Nature of the assay: Cytotoxicity against human Hep3B cells assessed as cell death after 24 hrs by lactate dehydrogenase release assay. It is filed as functional, cell-based.
The test system of assay [3] is HepG2. Nature of the assay: Cytotoxicity against human HepG2 cells assessed as cell death at 0.001 uM after 24 hrs by lactate dehydrogenase release assay. The format is functional.
The nature of assay [4]: Cytotoxicity against human Hep3B cells assessed as cell death at 0.01 uM after 24 hrs by lactate dehydrogenase release assay. It is filed as functional, Hep 3B2.
Assay [5] deals with PC-3. Nature of the assay: Cytotoxicity against human PC3 cells assessed as levels of nitric oxide production at 100 uM after 30 to 300 mins by colorimetric assay. It is filed as functional, cell-based.
Assay [6] relates to MCF7. Nature of the assay: Cytotoxicity against human MCF7 cells assessed as levels of nitric oxide production at 100 uM after 30 to 300 mins by colorimetric assay. It is filed as functional, cell-based.
The subject of assay [7] is MCF7. Nature of the assay: Cytotoxicity against human MCF7 cells assessed as cell death by lactate dehydrogenase release assay. The format is functional, cell-based.
Assay [8] is described as follows: Cytotoxicity against human Hep3B cells assessed as cell death at 1 uM after 24 hrs by lactate dehydrogenase release assay. The format is functional, Hep 3B2.
Assay [9] deals with HepG2. Nature of the assay: Cytotoxicity against human HepG2 cells assessed as cell death at 1 uM after 24 hrs by lactate dehydrogenase release assay. The format is functional.
The test system of assay [10] is HeLa. Nature of the assay: Cytotoxicity against human HeLa cells assessed as levels of nitric oxide production at 100 uM after 30 to 300 mins by colorimetric assay. The format is functional, cell-based.
Assay [11] in a line: Cytotoxicity against human Hep3B cells assessed as cell death at 0.001 uM after 24 hrs by lactate dehydrogenase release assay. It is filed as functional, Hep 3B2.
Assay [12] concerns HEK293. Nature of the assay: Cytotoxicity against HEK293 cells assessed as cell death by lactate dehydrogenase release assay. It is filed as functional, cell-based. Particulars: Homo sapiens.
In assay [13] the test system is HepG2. Nature of the assay: Cytotoxicity against human HepG2 cells assessed as cell death at 0.01 uM after 24 hrs by lactate dehydrogenase release assay. The format is functional.
In assay [14] the test system is HEK293. Nature of the assay: Cytotoxicity against human HEK293 cells assessed as levels of nitric oxide production at 100 uM after 30 to 300 mins by colorimetric assay. The format is functional, cell-based.
For assay [15], the system named is HepG2. Nature of the assay: Cytotoxicity against human HepG2 cells assessed as cell death at 0.1 uM after 24 hrs by lactate dehydrogenase release assay. The format is functional.
Assay [16] relates to HeLa. Nature of the assay: Cytotoxicity against human HeLa cells assessed as cell death by lactate dehydrogenase release assay. The format is functional, cell-based.
The subject of assay [17] is Hep 3B2. Nature of the assay: Cytotoxicity against human Hep3B cells assessed as levels of nitric oxide production at 100 uM after 30 to 300 mins by colorimetric assay. It is filed as functional, cell-based.
The test system of assay [18] is PC-3. Nature of the assay: Cytotoxicity against human PC3 cells assessed as cell death by lactate dehydrogenase release assay. The format is functional, cell-based.
In assay [19] the test system is HepG2. Nature of the assay: Cytotoxicity against human HepG2 cells assessed as levels of nitric oxide production at 100 uM after 30 to 300 mins by colorimetric assay. It is filed as functional, cell-based.
A short description of assay [20]: Cytotoxicity against human Hep3B cells assessed as cell death at 0.1 uM after 24 hrs by lactate dehydrogenase release assay. It is filed as functional, Hep 3B2.

For the compound `CCOC(=O)[C@]12CCC(C)(C)C[C@H]1C1=CC[C@@H]3[C@@]4(C)CC[C@H](OC(=O)CCC(=O)OCc5ccc(OCc6c(-c7ccccc7)no[n+]6[O-])cc5)C(C)(C)[C@@H]4CC[C@@]3(C)[C@]1(C)CC2`, the result in the assay on HepG2 [1] and with Hep 3B2 [2] was inactive.

`CC1(C)CC[C@]2(C(=O)O)CC[C@]3(C)C(=CC[C@@H]4[C@@]5(C)CC[C@H](OC(=O)CCC(=O)OCCOCCOc6no[n+]([O-])c6S(=O)(=O)c6ccccc6)C(C)(C)[C@@H]5CC[C@]43C)[C@@H]2C1`: the Activity is reported as 2.7% in the assay with HepG2 [3]; 9.78% in assay [4]; 88.65% in assay [8]; 95.63% in the assay with HepG2 [9]; 0% in assay [11]; 17.32% in the assay on HepG2 [13]. For the same compound, the Activity with HepG2 [15] was determined as 67.96%; in assay [20], 56.43%. Further, the result in the assay with PC-3 [5], in the assay on MCF7 [6], in the assay on MCF7 [7], in the assay on HeLa [10], in the assay with HEK293 [12] and with HEK293 [14] was inactive. For the same compound, the result in the assay on HeLa [16] and in the assay on PC-3 [18] was inactive. The result in the assay on Hep 3B2 [17] and with HepG2 [19] was Active.

In the case of `CCOC(=O)[C@]12CCC(C)(C)C[C@H]1C1=CC[C@@H]3[C@@]4(C)CC[C@H](OC(=O)CCC(=O)OC(C)CCOc5no[n+]([O-])c5S(=O)(=O)c5ccccc5)C(C)(C)[C@@H]4CC[C@@]3(C)[C@]1(C)CC2` (some centres undefined), the outcome in the assay on HepG2 [1] and with Hep 3B2 [2] was inactive.

`CC1(C)CC[C@]2(C(=O)OCc3ccc(OCc4c(-c5ccccc5)no[n+]4[O-])cc3)CC[C@]3(C)C(=CC[C@@H]4[C@@]5(C)CC[C@H](OC(=O)C(F)(F)F)C(C)(C)[C@@H]5CC[C@]43C)[C@@H]2C1`: the outcome in the assay on HepG2 [1] and in the assay on Hep 3B2 [2] was inactive.

As to `CC1(C)CC[C@]2(C(=O)O)CC[C@]3(C)C(=CC[C@@H]4[C@@]5(C)CC[C@H](OC(=O)CCC(=O)OCc6ccc(OCc7c(-c8ccccc8)no[n+]7[O-])cc6)C(C)(C)[C@@H]5CC[C@]43C)[C@@H]2C1`, the outcome with HepG2 [1] and in the assay with Hep 3B2 [2] was inactive.

As for `CC1(C)CC[C@]2(C(=O)OCCCCOc3no[n+]([O-])c3S(=O)(=O)c3ccccc3)CC[C@]3(C)C(=CC[C@@H]4[C@@]5(C)CC[C@H](O)C(C)(C)[C@@H]5CC[C@]43C)[C@@H]2C1`, the result with HepG2 [1] and in the assay on Hep 3B2 [2] was inactive.

`CC1(C)CC[C@]2(C(=O)OCc3cccc(OCc4c(-c5ccccc5)no[n+]4[O-])c3)CC[C@]3(C)C(=CC[C@@H]4[C@@]5(C)CC[C@H](OC(=O)C(F)(F)F)C(C)(C)[C@@H]5CC[C@]43C)[C@@H]2C1`: the result in the assay on HepG2 [1] and in the assay on Hep 3B2 [2] was inactive.

On to `CC1(C)CC[C@]2(C(=O)OCCOCCOc3no[n+]([O-])c3S(=O)(=O)c3ccccc3)CC[C@]3(C)C(=CC[C@@H]4[C@@]5(C)CC[C@H](OC(=O)C(F)(F)F)C(C)(C)[C@@H]5CC[C@]43C)[C@@H]2C1`, for which the outcome in the assay with HepG2 [1] and with Hep 3B2 [2] was inactive.

`CC1(C)CC[C@]2(C(=O)OCc3ccccc3)CC[C@]3(C)C(=CC[C@@H]4[C@@]5(C)CC[C@H](OC(=O)CCC(=O)OCc6cccc(Oc7no[n+]([O-])c7S(=O)(=O)c7ccccc7)c6)C(C)(C)[C@@H]5CC[C@]43C)[C@@H]2C1`: the result in the assay with HepG2 [1] and in the assay with Hep 3B2 [2] was inactive.

Consider `CC1(C)CC[C@]2(C(=O)OCc3ccc(Oc4no[n+]([O-])c4S(=O)(=O)c4ccccc4)cc3)CC[C@]3(C)C(=CC[C@@H]4[C@@]5(C)CC[C@H](OC(=O)C(F)(F)F)C(C)(C)[C@@H]5CC[C@]43C)[C@@H]2C1`, for which the outcome in the assay with HepG2 [1] and in the assay with Hep 3B2 [2] was inactive.

As to `CC1(C)CC[C@]2(C(=O)O)CC[C@]3(C)C(=CC[C@@H]4[C@@]5(C)CC[C@H](OC(=O)CCC(=O)Oc6cccc(OCc7c(-c8ccccc8)no[n+]7[O-])c6)C(C)(C)[C@@H]5CC[C@]43C)[C@@H]2C1`, the outcome in the assay on HepG2 [1] and with Hep 3B2 [2] was inactive.

In the case of `CC1(C)CC[C@]2(C(=O)OCc3c(-c4ccccc4)no[n+]3[O-])CC[C@]3(C)C(=CC[C@@H]4[C@@]5(C)CC[C@H](OC(=O)C(F)(F)F)C(C)(C)[C@@H]5CC[C@]43C)[C@@H]2C1`, the outcome in the assay with HepG2 [1] and with Hep 3B2 [2] was inactive.

As to `CC1(C)CC[C@]2(C(=O)OCc3ccccc3)CC[C@]3(C)C(=CC[C@@H]4[C@@]5(C)CC[C@H](OC(=O)CCC(=O)OCc6ccc(Oc7no[n+]([O-])c7S(=O)(=O)c7ccccc7)cc6)C(C)(C)[C@@H]5CC[C@]43C)[C@@H]2C1`, the outcome in the assay with HepG2 [1] and with Hep 3B2 [2] was inactive.

Turning to `CCOC(=O)[C@]12CCC(C)(C)C[C@H]1C1=CC[C@@H]3[C@@]4(C)CC[C@H](OC(=O)CCC(=O)OCc5cccc(OCc6c(-c7ccccc7)no[n+]6[O-])c5)C(C)(C)[C@@H]4CC[C@@]3(C)[C@]1(C)CC2`, the outcome in the assay on HepG2 [1] and with Hep 3B2 [2] was inactive.

For the compound `CC1(C)CC[C@]2(C(=O)OCc3ccccc3)CC[C@]3(C)C(=CC[C@@H]4[C@@]5(C)CC[C@H](OC(=O)CCC(=O)OCCCCOc6no[n+]([O-])c6S(=O)(=O)c6ccccc6)C(C)(C)[C@@H]5CC[C@]43C)[C@@H]2C1`, the outcome with HepG2 [1] and in the assay on Hep 3B2 [2] was inactive.

Regarding `CCOC(=O)[C@]12CCC(C)(C)C[C@H]1C1=CC[C@@H]3[C@@]4(C)CC[C@H](OC(=O)CCC(=O)OCCOCCOc5no[n+]([O-])c5S(=O)(=O)c5ccccc5)C(C)(C)[C@@H]4CC[C@@]3(C)[C@]1(C)CC2`, the outcome with HepG2 [1] and in the assay on Hep 3B2 [2] was inactive.

As for `CC1(C)CC[C@]2(C(=O)O)CC[C@]3(C)C(=CC[C@@H]4[C@@]5(C)CC[C@H](OC(=O)CCC(=O)OCc6ccc(Oc7no[n+]([O-])c7S(=O)(=O)c7ccccc7)cc6)C(C)(C)[C@@H]5CC[C@]43C)[C@@H]2C1`, the outcome in the assay on HepG2 [1] and in the assay on Hep 3B2 [2] was inactive.

Turning to `CC1(C)CC[C@]2(C(=O)OCCCCOc3no[n+]([O-])c3S(=O)(=O)c3ccccc3)CC[C@]3(C)C(=CC[C@@H]4[C@@]5(C)CC[C@H](OC(=O)C(F)(F)F)C(C)(C)[C@@H]5CC[C@]43C)[C@@H]2C1`, the outcome in the assay with HepG2 [1] and in the assay with Hep 3B2 [2] was inactive.

On to `CC1(C)CC[C@]2(C(=O)OCc3c(-c4ccccc4)no[n+]3[O-])CC[C@]3(C)C(=CC[C@@H]4[C@@]5(C)CC[C@H](O)C(C)(C)[C@@H]5CC[C@]43C)[C@@H]2C1`, for which the result with HepG2 [1] and in the assay on Hep 3B2 [2] was inactive.

With `CC1(C)CC[C@]2(C(=O)OCC#CCOc3no[n+]([O-])c3S(=O)(=O)c3ccccc3)CC[C@]3(C)C(=CC[C@@H]4[C@@]5(C)CC[C@H](OC(=O)C(F)(F)F)C(C)(C)[C@@H]5CC[C@]43C)[C@@H]2C1`, the outcome in the assay on HepG2 [1] and with Hep 3B2 [2] was inactive.

As to `CC1(C)CC[C@]2(C(=O)O)CC[C@]3(C)C(=CC[C@@H]4[C@@]5(C)CC[C@H](OC(=O)CCC(=O)OCc6cccc(OCc7c(-c8ccccc8)no[n+]7[O-])c6)C(C)(C)[C@@H]5CC[C@]43C)[C@@H]2C1`, the outcome in the assay on HepG2 [1] and with Hep 3B2 [2] was inactive.

Consider `CC1(C)CC[C@]2(C(=O)OCc3cccc(OCc4c(-c5ccccc5)no[n+]4[O-])c3)CC[C@]3(C)C(=CC[C@@H]4[C@@]5(C)CC[C@H](O)C(C)(C)[C@@H]5CC[C@]43C)[C@@H]2C1`, for which the outcome in the assay on HepG2 [1] and in the assay with Hep 3B2 [2] was inactive.

As to `CC(CCOc1no[n+]([O-])c1S(=O)(=O)c1ccccc1)OC(=O)CCC(=O)O[C@H]1CC[C@]2(C)[C@H]3CC=C4[C@@H]5CC(C)(C)CC[C@]5(C(=O)OCc5ccccc5)CC[C@@]4(C)[C@]3(C)CC[C@H]2C1(C)C` (some centres undefined), the outcome in the assay with HepG2 [1] and in the assay on Hep 3B2 [2] was inactive.

Turning to `CC1(C)CC[C@]2(C(=O)OCc3ccccc3)CC[C@]3(C)C(=CC[C@@H]4[C@@]5(C)CC[C@H](OC(=O)CCC(=O)OCc6c(-c7ccccc7)no[n+]6[O-])C(C)(C)[C@@H]5CC[C@]43C)[C@@H]2C1`, the outcome with HepG2 [1] and in the assay with Hep 3B2 [2] was inactive.
